ChEMBL document CHEMBL1129670, “Synthesis and structure-activity relationships of N-propyl-N-(4-pyridinyl)-1H-indol-1-amine (besipirdine) and related analogs as potential therapeutic agents for Alzheimer's disease” (J Med Chem, 1996)

How the values were obtained:
[1] = molecular target: Muscarinic acetylcholine receptor; format: cell membranes, Membrane
Description: Inhibition of [3H]quinuclidinyl benzilate (QNB) binding from rat forebrain membranes in the presence of Zn

[2] = molecular target: Sodium-dependent noradrenaline transporter (Homo sapiens, UniProt P23975)
Description: Inhibitory activity against norepinephrine (NE) uptake in rat whole brain synaptosome preparation

Mus musculus [3] = organism: Mus musculus; assay: animal or person
Description: Effective dose against administration in mice

Mus musculus [4] = assay: Antagonistic activity against Scopolamine induced behavioral deficits in mice at dose 1.25 mg/kg sc; 1/6; format: functional
[5] = molecular target: Muscarinic acetylcholine receptor; format: cell membranes, Membrane; remark: listed apart in the source
Description: Inhibition of [3H]quinuclidinyl benzilate (QNB) binding from rat forebrain membranes in the absence of Zn

Mus musculus [6] = assay: Antagonistic activity against Scopolamine induced behavioral deficits in mice at dose 2.5 mg/kg sc; format: functional; settings: route subcutaneous
Acetylcholinesterase = molecular target: T1, Acetylcholinesterase (Rattus norvegicus, UniProt P37136)
T1 sequence (P37136 whole entry): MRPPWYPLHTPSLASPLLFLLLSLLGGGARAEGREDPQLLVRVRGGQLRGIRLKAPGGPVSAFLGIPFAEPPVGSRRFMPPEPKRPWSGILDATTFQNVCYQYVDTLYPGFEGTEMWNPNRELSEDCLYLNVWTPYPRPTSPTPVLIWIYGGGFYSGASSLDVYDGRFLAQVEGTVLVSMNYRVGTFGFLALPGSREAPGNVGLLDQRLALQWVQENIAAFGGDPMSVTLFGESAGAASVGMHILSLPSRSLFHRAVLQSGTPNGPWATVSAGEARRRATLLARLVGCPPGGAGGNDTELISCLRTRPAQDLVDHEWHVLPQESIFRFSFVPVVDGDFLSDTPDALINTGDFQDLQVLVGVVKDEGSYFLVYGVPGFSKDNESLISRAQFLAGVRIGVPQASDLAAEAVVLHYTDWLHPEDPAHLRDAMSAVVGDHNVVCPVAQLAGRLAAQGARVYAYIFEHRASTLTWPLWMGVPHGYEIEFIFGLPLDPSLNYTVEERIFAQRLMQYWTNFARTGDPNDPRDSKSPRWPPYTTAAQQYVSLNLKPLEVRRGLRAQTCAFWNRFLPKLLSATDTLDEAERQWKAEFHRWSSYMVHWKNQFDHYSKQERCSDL
Description: Inhibitory activity against acetylcholinesterase in rat striatal preparation

[7] = molecular target: T2, Adrenergic receptor alpha-2 (Rattus norvegicus, UniProt P22086+P19328+P22909); assay: Inhibitory activity against [3H]clonidine binding to Alpha-2 adrenergic receptor in rat cortex
T2 sequence (P22086 whole entry): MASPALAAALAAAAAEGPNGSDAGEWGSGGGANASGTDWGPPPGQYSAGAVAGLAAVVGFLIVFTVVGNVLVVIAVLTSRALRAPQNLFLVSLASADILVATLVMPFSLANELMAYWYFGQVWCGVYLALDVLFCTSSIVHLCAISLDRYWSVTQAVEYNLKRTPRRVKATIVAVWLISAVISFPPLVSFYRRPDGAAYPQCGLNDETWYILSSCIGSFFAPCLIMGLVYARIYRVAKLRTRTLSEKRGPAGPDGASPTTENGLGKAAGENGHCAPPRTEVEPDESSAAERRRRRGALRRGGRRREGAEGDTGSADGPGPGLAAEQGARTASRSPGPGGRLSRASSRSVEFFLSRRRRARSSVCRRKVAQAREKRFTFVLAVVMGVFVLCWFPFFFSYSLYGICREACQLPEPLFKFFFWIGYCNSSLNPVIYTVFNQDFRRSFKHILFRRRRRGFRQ
T2 sequence (P19328 whole entry): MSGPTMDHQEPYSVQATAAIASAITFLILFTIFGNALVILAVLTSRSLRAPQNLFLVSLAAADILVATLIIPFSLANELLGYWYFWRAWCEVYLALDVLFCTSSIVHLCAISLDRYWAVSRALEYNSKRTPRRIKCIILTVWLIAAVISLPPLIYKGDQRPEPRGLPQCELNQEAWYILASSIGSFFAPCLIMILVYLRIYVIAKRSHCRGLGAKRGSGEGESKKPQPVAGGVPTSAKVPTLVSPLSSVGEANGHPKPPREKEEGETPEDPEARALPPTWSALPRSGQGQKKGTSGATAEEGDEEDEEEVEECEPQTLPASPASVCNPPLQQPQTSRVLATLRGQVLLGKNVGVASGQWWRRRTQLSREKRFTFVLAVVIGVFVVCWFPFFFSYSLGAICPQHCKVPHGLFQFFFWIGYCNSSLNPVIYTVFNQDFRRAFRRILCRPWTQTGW
T2 sequence (P22909 whole entry): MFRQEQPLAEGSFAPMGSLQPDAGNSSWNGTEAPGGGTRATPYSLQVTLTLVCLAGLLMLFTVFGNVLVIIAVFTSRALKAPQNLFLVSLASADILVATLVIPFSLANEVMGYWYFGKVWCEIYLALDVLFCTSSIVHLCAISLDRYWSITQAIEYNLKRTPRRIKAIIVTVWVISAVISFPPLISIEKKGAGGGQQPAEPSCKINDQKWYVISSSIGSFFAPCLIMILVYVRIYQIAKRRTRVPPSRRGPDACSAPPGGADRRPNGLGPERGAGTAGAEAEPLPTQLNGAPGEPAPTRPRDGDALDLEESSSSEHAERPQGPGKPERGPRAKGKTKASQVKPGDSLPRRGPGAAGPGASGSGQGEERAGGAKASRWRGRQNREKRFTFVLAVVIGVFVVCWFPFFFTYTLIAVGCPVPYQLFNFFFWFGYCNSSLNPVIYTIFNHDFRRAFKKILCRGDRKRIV

Mus musculus [8] = organism: Mus musculus; assay: Antagonistic activity against Scopolamine induced behavioral deficits in mice; 0/9; format: functional
Mus musculus [9] = organism: Mus musculus; assay: Antagonistic activity against Scopolamine induced behavioral deficits in mice; 0/3; format: functional
Mus musculus [10] = organism: Mus musculus; settings: dose 2.5 mg/kg; route subcutaneous
Mus musculus [11] = organism: Mus musculus; assay: Antagonistic activity against Scopolamine induced behavioral deficits in mice; 5/6; format: functional
Mus musculus [12] = assay: Antagonistic activity against Scopolamine induced behavioral deficits in mice at dose 0.16 mg/kg sc; format: functional; settings: route subcutaneous
Mus musculus [13] = assay: Antagonistic activity against Scopolamine induced behavioral deficits in mice at dose […] sc; format: functional; settings: route subcutaneous
Mus musculus [14] = assay: Antagonistic activity against Scopolamine induced behavioral deficits in mice at dose 1.25 mg/kg sc; format: functional; settings: route subcutaneous
Mus musculus [15] = organism: Mus musculus; settings: dose 5 mg/kg; route subcutaneous
Mus musculus [16] = assay: Antagonistic activity against Scopolamine induced behavioral deficits in mice at dose 0.63 mg/kg sc; format: functional; settings: route subcutaneous
Mus musculus [17] = organism: Mus musculus
Mus musculus [18] = organism: Mus musculus; assay: Antagonistic activity against Scopolamine induced behavioral deficits in mice; format: functional
Mus musculus [19] = assay: Antagonistic activity against Scopolamine induced behavioral deficits in mice at dose 0.04 mg/kg sc; format: functional; settings: route subcutaneous
Mus musculus [20] = organism: Mus musculus; assay: Antagonistic activity against Scopolamine induced behavioral deficits in mice; 4/6; format: functional
Mus musculus [21] = assay: Antagonistic activity against Scopolamine induced behavioral deficits in mice at dose 5.0 mg/kg sc; format: functional; settings: route subcutaneous
Mus musculus [22] = organism: Mus musculus; settings: dose 0.63 mg/kg; route subcutaneous
Mus musculus [23] = assay: Antagonistic activity against Scopolamine induced behavioral deficits in mice at dose 1.25 mg/kg sc; 0/6; format: functional
Mus musculus [24] = assay: Antagonistic activity against Scopolamine induced behavioral deficits in mice at dose 5.0 mg/kg sc; 2/6; format: functional
Mus musculus [25] = assay: Antagonistic activity against Scopolamine induced behavioral deficits in mice at dose 20 mg/kg sc; format: functional; settings: route subcutaneous
Mus musculus [26] = assay: Antagonistic activity against Scopolamine induced behavioral deficits in mice at dose 10 mg/kg sc; format: functional; settings: route subcutaneous
Mus musculus [27] = organism: Mus musculus; assay: Antagonistic activity against Scopolamine induced behavioral deficits in mice; 3/9; format: functional

Sodium-dependent noradrenaline transporter, sequence (P23975 whole entry): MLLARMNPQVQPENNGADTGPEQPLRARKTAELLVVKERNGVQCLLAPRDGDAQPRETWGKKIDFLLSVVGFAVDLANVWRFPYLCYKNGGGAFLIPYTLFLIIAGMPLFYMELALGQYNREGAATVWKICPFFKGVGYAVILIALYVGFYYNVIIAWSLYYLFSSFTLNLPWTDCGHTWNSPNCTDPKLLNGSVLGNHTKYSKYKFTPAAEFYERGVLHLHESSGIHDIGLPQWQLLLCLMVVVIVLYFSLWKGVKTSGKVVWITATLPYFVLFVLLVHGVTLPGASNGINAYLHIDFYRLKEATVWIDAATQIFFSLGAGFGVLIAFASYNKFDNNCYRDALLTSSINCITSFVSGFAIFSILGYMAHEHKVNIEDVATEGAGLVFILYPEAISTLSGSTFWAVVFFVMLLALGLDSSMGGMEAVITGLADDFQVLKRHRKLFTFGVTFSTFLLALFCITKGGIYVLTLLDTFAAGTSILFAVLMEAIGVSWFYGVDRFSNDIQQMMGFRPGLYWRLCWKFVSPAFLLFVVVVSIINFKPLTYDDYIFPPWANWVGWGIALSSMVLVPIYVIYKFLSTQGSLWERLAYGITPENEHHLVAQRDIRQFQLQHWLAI

| Compound | IC50 [1] | IC50 [2] | ED50 (Mus musculus [3]) | IC50 [5] | IC50 (Acetylcholinesterase) | further results |
| --- | --- | --- | --- | --- | --- | --- |
| CCCN(c1ccnc2cc(Cl)ccc12)n1ccc2ccccc21.O=C(O)/C=C/C(=O)O | 180 µM | 6.9 µM | > 20 mg/kg | > 300 µM |  | Antagonism (Mus musculus [4]): 1; Response (Mus musculus [6]): 29% |
| CCCN(c1ccncc1)n1cc(CC)c2ccccc21 | 0.71 µM | 2.1 µM | 0.44 mg/kg | 2.7 µM | 20 µM | IC50 [7]: 3.6 µM; Antagonism (Mus musculus [8]): 0 |
| Cc1cc2ccccc2n1Nc1ccncc1 | 29 µM | 3.6 µM | < 10 mg/kg | 60 µM | > 100 µM | Antagonism (Mus musculus [9]): 0 |
| CC(C)N(c1ccncc1)n1ccc2ccccc21 | 0.63 µM | 2.3 µM | 2.9 mg/kg | 6 µM | > 100 µM | Response (Mus musculus [10]): 20%; Antagonism (Mus musculus [11]): 5; IC50 [7]: > 10 µM; Response (Mus musculus [12]): 33%; Response (Mus musculus [13]): 60%; Response (Mus musculus [14]): 36%; Response (Mus musculus [15]): 20% |
| CCCN(c1cc(Cl)ncn1)n1ccc2ccccc21 | > 1000 µM | 2.6 µM | > 20 mg/kg | > 1000 µM | > 100 µM | Response (Mus musculus [16]): 33%; Antagonism (Mus musculus [17]): 3; Response (Mus musculus [6]): 33% |
| CCCCN(c1ccncc1)n1ccc2ccccc21 | 1.5 µM | 0.43 µM | 5.4 mg/kg | 4 µM | 62 µM | Agonism (Mus musculus [18]): 1; IC50 [7]: 0.63 µM; Response (Mus musculus [19]): 23% |
| CCCN(c1ccncc1)n1ccc2cc(OC)ccc21 | 4.8 µM | 0.57 µM | > 20 mg/kg | 14 µM | > 100 µM | Response (Mus musculus [16]): 26%; Response (Mus musculus [12]): 20%; Response (Mus musculus [13]): 20%; Antagonism (Mus musculus [20]): 4; Response (Mus musculus [21]): 36% |
| CN(c1ccncc1)n1ccc2cc([N+](=O)[O-])ccc21 | 7.6 µM | > 30 µM | > 20 mg/kg | 29 µM | > 100 µM | Response (Mus musculus [12]): 20%; Response (Mus musculus [22]): 20%; Response (Mus musculus [14]): 20%; Antagonism (Mus musculus [20]): 4; Response (Mus musculus [21]): 20% |
| CCCN(c1ccncc1)n1cc(C#N)c2ccccc21 | 3.5 µM | 0.75 µM | 9.2 mg/kg | 8.6 µM |  | Response (Mus musculus [16]): 36%; Antagonism (Mus musculus [11]): 5; Response (Mus musculus [12]): 40%; Response (Mus musculus [13]): 53%; Response (Mus musculus [14]): 29%; Response (Mus musculus [21]): 27% |
| CCCN(c1ccncc1)n1ncc2ccccc21.O=C(O)/C=C/C(=O)O | 4 µM | 1.4 µM | 11 mg/kg | 13 µM | > 100 µM | Antagonism (Mus musculus [23]): 0 |
| CCCN(c1ccncc1)n1ccc2cc(Br)ccc21 | 1.6 µM | 2.6 µM | > 20 mg/kg | 4.4 µM | > 100 µM | Response (Mus musculus [22]): 33%; Response (Mus musculus [15]): 33%; Antagonism (Mus musculus [24]): 2 |
| C#CCN(c1ccncc1)n1ccc2ccccc21 | 2.5 µM | 0.68 µM | 3.9 mg/kg | 11 µM | > 100 µM | Response (Mus musculus [10]): 21%; IC50 [7]: 0.5 µM; Response (Mus musculus [25]): 27%; Response (Mus musculus [26]): 21%; Antagonism (Mus musculus [27]): 3 |
| Clc1ccc2c(ccn2Nc2ccncc2)c1 | 5.9 µM | > 20 µM | > 20 mg/kg | 42 µM | > 100 µM | Antagonism (Mus musculus [9]): 0 |
| c1ccc2c(c1)OCC(C1=NCCN1)O2 (centres undefined) [IDAZOXAN] |  | > 20 µM |  |  |  | Response (Mus musculus [10]): 53%; Antagonism (Mus musculus [11]): 5; Response (Mus musculus [13]): 60%; Response (Mus musculus [22]): 43%; Response (Mus musculus [14]): 47%; Response (Mus musculus [15]): 33% |
